These results are taken from patent US20080182859A1 (Curis, Inc., priority 2006, published 2008).

Where a name gives a salt, the structure may show the parent alone.

Assay [1] deals with C57BL/6 male mice. The assay is described as follows: C57BL/6 hair growth after topical dosing. In kind it is in vivo, mouse. The conditions noted are these: shaved lower back, dosed topically once, visually graded for melanogenesis and hair regrowth. As for the experimental part:
(§1) A mouse model of male pattern baldness is used to investigate the effectiveness of the present compounds for growing hair. Agonists for the sonic hedgehog pathway that act by binding and activating Smoothened were tested in a formulation of 50:30:20 PG:EtOH:water or 5:95 DMSO:acetone vehicle. C57BL/6 male mice (48-52 days old on arrival) from Charles River Labs were used on the study. The mice were housed and cared for according to established procedures. Food and water were ad libitum. On Day 0, the mice were shaved on their lower back, an area of ˜1.5 inches x ˜2 inches with Wahl clippers using a surgical blade. On day −3, the mice were anesthetized with isoflurane, their back was rinsed with a pad of 70% ethanol, a placebo pellet or a DHT pellet (2.5 mg 21 day pellet) were implanted subcutaneously between the shoulder blades with a 10 gauge trochar. DHT pellet transplantation results in maintenance of existing hair follicles in the resting (telogen) phase. The hole was stapled with a sterile autoclip and the mice were returned to their cage after awaking. The mice were dosed topically once and visually graded daily, except weekends, for melanogenesis and hair regrowth of fur in the dosed area (Table 4).

Assay [2] has as its system C57BL/6 male mice. The assay is described as follows: DHT-induced alopecia (mouse model of male pattern baldness). In kind it is in vivo. The note with it: C57BL/6 male mice with subcutaneous DHT pellet (2.5 mg 21 day), dosed topically once, visually graded for hair regrowth. As for the experimental part:
as §1
In the absence of treatment with the present compounds, the follicles remain in telogen rather than following the normal time course of the mouse hair cycle.

The subject of assay [3] is sonic hedgehog pathway. The assay can be described thus: Human hedgehog reporter assay HEPM-GliLuc (HGL). In kind it is cell-based. The note with it: HepM human embryonic palatal mesenchymal cells, Gli-luciferase reporter. A digest of the protocol: (§2)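 Luminescence read-out of gli-promoter luciferase in stably transfected cells; 11-point 1:3 dose curves, 24 h compound exposure in 0.5% FBS, ± octyl-modified Hh protein 1–5 ng/ml. AMAX as % of plate low/high controls; EC50 from curve; >20% AMAX counted active.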
(In general: Reporter assays use an easily measured gene product as a stand-in for the process of interest.)

In assay [4] the test system is sonic hedgehog pathway. The assay can be described thus: Hedgehog pathway Gli-luciferase reporter assay, TM3 cells. The conditions noted are these: TM3 mouse Leydig cells. Format: cell-based. In outline: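 Reporter cells stably selected after gli-luciferase plasmid transfection; test article dosed over 11 points (1:3). Read as luminescence after 24 h treatment in 0.5% serum; activity >20% AMAX versus plate controls deemed active.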

Assay [5] concerns sonic hedgehog pathway. The assay can be described thus: Human hedgehog reporter assay Daoy-GliLuc (DGL). In kind it is cell-based. The conditions noted are these: Daoy human medulloblastoma cells, Gli-luciferase reporter; read-out: Daoy Avg. EC50. In outline:
as §2

Assay [6] deals with sonic hedgehog pathway. The assay is described as follows: Hedgehog pathway Gli-luciferase reporter assay, S12 cells. Format: cell-based. The note with it: S12 mouse embryonic mesenchymal cells, read-out: S12 Avg. EC50. In outline:
as §2

With `CN[C@H]1CC[C@H](N(Cc2cc(-c3ccnc(C)c3)ccc2OC)C(=O)c2sc3ccccc3c2Cl)CC1`, the “C57BL/6 Hair Growth” value in assay [1] is “yes”. The “Androgenetic Alopecia” value in assay [2] is “yes”.
Turning to `CN[C@H]1CC[C@H](N(Cc2cc(-c3ccc(N)nc3)ccc2OC)C(=O)c2sc3cccc(F)c3c2Cl)CC1`, in assay [1], the “C57BL/6 Hair Growth” value was “yes”. The “Androgenetic Alopecia” value in assay [2] is listed as “yes”.
As for `CN[C@H]1CC[C@H](N(Cc2cc(-c3ccc(S(C)(=O)=O)cc3)ccc2OC)C(=O)c2sc3ccccc3c2Cl)CC1`, the “C57BL/6 Hair Growth” value in assay [1] is on record as “yes”. Besides, the “Androgenetic Alopecia” value in assay [2] is recorded as “yes”.
`CCOc1ccc(-c2ccc(C)nc2)cc1CN(C(=O)c1sc2ccccc2c1Cl)[C@H]1CC[C@H](NC)CC1`: the “C57BL/6 Hair Growth” value in assay [1] is “yes”.
In the case of `CN[C@H]1CC[C@H](N(Cc2cc(-c3ccnc(C(=O)N(C)C)c3)ccc2OC)C(=O)c2sc3c(F)ccc(F)c3c2Cl)CC1`, the “C57BL/6 Hair Growth” value in assay [1] is “yes”. Also, in assay [2], the “Androgenetic Alopecia” value was “yes”.
On to `CNC1CCC(N(Cc2cc(-c3ccncc3)ccc2OC)C(=O)c2sc3ccccc3c2Cl)CC1` (stereo not drawn), for which, in assay [1], the “C57BL/6 Hair Growth” value is listed as “yes”. Further, the “Androgenetic Alopecia” value in assay [2] was “yes”.
Regarding `CN[C@H]1CC[C@H](N(Cc2cc(-c3ccc(NS(C)(=O)=O)nc3)ccc2OC)C(=O)c2sc3c(F)ccc(F)c3c2Cl)CC1`, the “C57BL/6 Hair Growth” value in assay [1] is recorded as “yes”.
For `CCOc1ccc(-c2ccc(C#N)cc2)cc1CN(C(=O)c1sc2ccccc2c1Cl)[C@H]1CC[C@H](NC)CC1`, the “C57BL/6 Hair Growth” value in assay [1] is “yes”.
Still for that read-out and setting: for `CN[C@H]1CC[C@H](N(Cc2cc(-c3ccnc(C(=O)O)c3)ccc2OC)C(=O)c2sc3c(F)ccc(F)c3c2Cl)CC1` the value was “no”.
For the compound `CN[C@H]1CC[C@@H](N(Cc2cc(-c3ccc(C)nc3)ccc2OC)C(=O)c2sc3c(F)ccc(F)c3c2Cl)CC1` [Compound 334, 3-Chloro-4,7-difluoro-benzo[b]thiophene-2-carboxylic acid [2-methoxy-5-(6-methyl-pyridin-3-yl)-benzyl]-(4-methylamino-cyclohexyl)-amide bis(trifluoroacetate)], the concentration giving a half-maximal response (EC50) in assay [3], in assay [4], in assay [5] and in assay [6] was below 50 nM throughout.
`CN[C@H]1CC[C@@H](N(Cc2cc(-c3ccc(S(C)(=O)=O)cc3)ccc2OC)C(=O)c2sc3c(F)ccc(F)c3c2Cl)CC1` [Compound 335, 3-Chloro-4,7-difluoro-benzo[b]thiophene-2-carboxylic acid (4′-methanesulfonyl-4-methoxy-biphenyl-3-ylmethyl)-(4-methylamino-cyclohexyl)-amide hydrochloride]: the 50% effective concentration (EC50) in assay [3], in assay [4], in assay [5] and in assay [6] was below 50 nM throughout.
Take `CN[C@H]1CC[C@@H](N(Cc2cc(-c3ccc(N(C)C(C)=O)cc3)ccc2OC)C(=O)c2sc3c(F)ccc(F)c3c2Cl)CC1` [Compound 336, 3-Chloro-4,7-difluoro-benzo[b]thiophene-2-carboxylic acid [4′-(acetyl-methyl-amino)-4-methoxy-biphenyl-3-ylmethyl]-(4-methylamino-cyclohexyl)-amide hydrochloride]: the EC50 in assay [3], in assay [4], in assay [5] and in assay [6] was below 50 nM in each case.
Consider `CN[C@H]1CC[C@@H](N(Cc2cc(-c3ccc(CO)cc3)ccc2OC)C(=O)c2sc3c(F)ccc(F)c3c2Cl)CC1` [Compound 338, 3-Chloro-4,7-difluoro-benzo[b]thiophene-2-carboxylic acid (4′-hydroxymethyl-4-methoxy-biphenyl-3-ylmethyl)-(4-methylamino-cyclohexyl)-amide trifluoroacetate], for which the concentration giving a half-maximal response (EC50) in assay [3], in assay [4], in assay [5] and in assay [6] was below 50 nM in each case.
As for `CN[C@H]1CC[C@@H](N(Cc2cc(-c3ccncc3)ccc2OC)C(=O)c2sc3c(F)ccc(F)c3c2Cl)CC1` [Compound 342, 3-Chloro-4,7-difluoro-benzo[b]thiophene-2-carboxylic acid (2-methoxy-5-pyridin-4-yl-benzyl)-(4-methylamino-cyclohexyl)-amide dihydrochloride], the half-maximal effective concentration (EC50) in assay [3], in assay [4], in assay [5] and in assay [6] was below 50 nM throughout.
For the compound `CN[C@H]1CC[C@@H](N(Cc2cc(-c3ccc(C(N)=O)cc3)ccc2OC)C(=O)c2sc3cccc(F)c3c2Cl)CC1` [Compound 346, 3-Chloro-4-fluoro-benzo[b]thiophene-2-carboxylic acid (4′-carbamoyl-4-methoxy-biphenyl-3-ylmethyl)-(4-methylamino-cyclohexyl)-amide hydrochloride], the EC50 in assay [3], in assay [4], in assay [5] and in assay [6] was below 50 nM in each case.
Regarding `CN[C@H]1CC[C@@H](N(Cc2cc(-c3ccnc(C)c3)ccc2OC)C(=O)c2sc3cccc(F)c3c2Cl)CC1` [Compound 348, 3-Chloro-4-fluoro-benzo[b]thiophene-2-carboxylic acid [2-methoxy-5-(2-methyl-pyridin-4-yl)-benzyl]-(4-methylamino-cyclohexyl)-amide bis(trifluoroacetate)], the concentration for a half-maximal effect (EC50) in assay [3], in assay [4], in assay [5] and in assay [6] was below 50 nM throughout.
Turning to `CNc1cc(-c2ccc(OC)c(CN(C(=O)c3sc4c(F)ccc(F)c4c3Cl)[C@H]3CC[C@@H](NC)CC3)c2)ccn1` [Compound 357, 3-Chloro-4,7-difluoro-benzo[b]thiophene-2-carboxylic acid [2-methoxy-5-(2-methylamino-pyridin-4-yl)-benzyl]-(4-methylamino-cyclohexyl)-amide bis(trifluoroacetate)], the concentration for a half-maximal effect (EC50) in assay [3], in assay [4], in assay [5] and in assay [6] was below 50 nM throughout.
Turning to `CN[C@H]1CC[C@@H](N(Cc2cc(-c3ccncc3)ccc2OC)C(=O)c2sc3cccc(F)c3c2Cl)CC1` [Compound 359, 3-Chloro-4-fluoro-benzo[b]thiophene-2-carboxylic acid (2-methoxy-5-pyridin-4-yl-benzyl)-(4-methylamino-cyclohexyl)-amide dihydrochloride], the EC50 in assay [3], in assay [4], in assay [5] and in assay [6] was below 50 nM in each case.
Turning to `CN[C@H]1CC[C@@H](N(Cc2cc(-c3cccnc3)ccc2OC)C(=O)c2sc3c(F)ccc(F)c3c2Cl)CC1` [Compound 361, 3-Chloro-4,7-difluoro-benzo[b]thiophene-2-carboxylic acid (2-methoxy-5-pyridin-3-yl-benzyl)-(4-methylamino-cyclohexyl)-amide dihydrochloride], the EC50 in assay [3], in assay [4], in assay [5] and in assay [6] was below 50 nM in each case.
Regarding `CN[C@H]1CC[C@@H](N(Cc2cc(-c3ccccn3)ccc2OC)C(=O)c2sc3c(F)ccc(F)c3c2Cl)CC1` [Compound 367, 3-Chloro-4,7-difluoro-benzo[b]thiophene-2-carboxylic acid (2-methoxy-5-pyridin-2-yl-benzyl)-(4-methylamino-cyclohexyl)-amide dihydrochloride], the EC50 in assay [3], in assay [4], in assay [5] and in assay [6] was below 50 nM throughout.
As to `CN[C@H]1CC[C@H](N(Cc2cc(-c3ccnc(C(=O)OC)c3)ccc2OC)C(=O)c2sc3c(F)ccc(F)c3c2Cl)CC1` [Compound R5, Methyl 4-(3-{[(3-chloro-4,7-difluoro-benzo[b]thiophene-2-carbonyl)-(4-methylamino-cyclohexyl)-amino]-methyl}-4-methoxy-phenyl)-pyridine-2-carboxylate], the EC50 in assay [3], in assay [4], in assay [5] and in assay [6] was below 50 nM in each case.
As for `CN[C@H]1CC[C@@H](N(Cc2cc(-c3ccnc(C(=O)N(C)C)c3)ccc2OC)C(=O)c2sc3c(F)ccc(F)c3c2Cl)CC1` [Compound R9, 4-(3-{[(3-Chloro-4,7-difluoro-benzo[b]thiophene-2-carbonyl)-(4-methylamino-cyclohexyl)-amino]-methyl}-4-methoxy-phenyl)-pyridine-2-carboxylic acid dimethylamide dihydrochloride], the EC50 in assay [3], in assay [4], in assay [5] and in assay [6] was below 50 nM throughout.
